The test is described as follows: Vesicle rupture assay. As to conditions: POPC LUVs, relative to Triton X-100 (=100%). The class given is biochemical.

With EWGQGLTSFWHL [compound 2], the “rupturing of POPC vesicles” value was 50–75%.

The values are drawn from PMC4712357 (Molecular informatics, 2015).
